In PubChem BioAssay (NCI):
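96-well plates; 48 h exposure; 5 concentrations. Endpoints by linear interpolation between flanking doses. Not reached: highest tested concentration assigned. GI50 marks 50% less growth. At the TGI there is no net growth.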

test system: MDA-MB-468 breast; assay: DTP human tumour cell line panel, 48 h

SMILES	GI50 [µM]	TGI [µM]
CC1=C([Se]CC(OC(=O)[C@@H](CO)NC(=O)OC(C)(C)C)C(=O)NCCCCCC(=O)OCc2ccccc2)C(=O)c2ccccc2C1=O (stereo partly drawn)	1.49	3.16
COC1=CC(=O)c2nc(Cl)ccc2C1=O	1.36	2.67
Cc1cc(Cl)cc(Cc2cc(Cl)cc(C)c2O)c1O	2.22	6.92
CN(C)CCOC(=O)Nc1nc2ccc(Sc3ccccc3)cc2[nH]1	2.02	7.73
C=CCc1c(O)c(C(=O)/C=C/c2ccccc2)c(OC)c2ccoc12	3.07	11.4
CN1CCN(Cc2ccc(NC(=O)c3cncc(C#Cc4cnc(N)c5cnccc45)c3)cc2C(F)(F)F)CC1	0.285	4.52
CN1CCN(Cc2cc(NC(=O)c3cccc(C#Cc4cccc5[nH]nc(N)c45)c3)cc(C(F)(F)F)c2)CC1	1.75	3.35
CCCN1CCC(c2ccc(Nc3nc(Nc4cc(F)ccc4C(N)=O)c4cc[nH]c4n3)c(OC)c2)CC1	3.47	7.39
COc1ccc(/C=C2\c3cc(OC)c(OC)c(OC)c3CC[C@@H]2O)cc1F	1.16	> 100
FC(F)(F)c1cc(Nc2ccc3cc(OCCCN4CCOCC4)ccc3n2)ccc1Cl	1.91	6.75
C#Cc1cccc(NC(=O)c2ccc(NC(=O)CCl)cc2)c1	18.8	76.9
CCN(Cc1ccc(F)cc1)c1ccc(CO)c(OC)c1	0.435	2.11
CN(C)c1ccc(N=C2C=CC(=O)c3ccccc32)cc1	2.15	6.05
COc1ccc(OC)c(/C=C/c2nc(SCc3ccccc3)n(-c3ccc(Cl)cc3)n2)c1	5.12	84.5
CCn1ccc(NS(=O)(=O)c2ccc(N)cc2)nc1=O	> 100	> 100
O=[N+]([O-])c1ccc(Sc2ccncn2)c([N+](=O)[O-])c1	0.982	3.78
COc1cnc2c(c1)C(=O)c1c-2n(CCCN2CCNCC2)c(=O)c2cc([N+](=O)[O-])ccc12	0.257	1.35

SMILES	GI50 [µM]	TGI [µM]
CCC(=O)Nc1cc(Nc2cc(NC3CC3)n3ncc(C#N)c3n2)ccc1C	1.16	4.06
COc1ccc(N(C)c2nc(Cl)nc3cnn(C)c23)cc1	< 0.01	> 100
Nc1ncnc2c1ccn2[C@@H]1O[C@H]([C@H](O)c2ccc(Cl)c(F)c2)[C@@H](O)[C@H]1O	40.7	> 100
COC(=O)[C@]12CC[C@@H](C)[C@H](C)[C@@H]1C1=CC[C@@H]3[C@@]4(C)C(C=O)=C[C@@](C)(COC(=O)/C=C/c5ccccc5)[C@@H]4[C@H](O)C[C@@]3(C)[C@]1(C)CC2	2.59	7.49
COc1cccc(Nc2nccc(-c3cnn4ncccc34)n2)c1	0.0484	0.106
CN(C)CCNC(=O)NC[C@H]1CC[C@@H]2[C@H](O1)c1cc(C(F)(F)F)ccc1N[C@H]2c1ccccc1	0.0349	0.312
COCCn1cc(-c2csc(-c3c[nH]c4ccc(Br)cc34)n2)c2cccnc21	2.34	7.63
Cc1nccc2c3ccc(OCc4cn(-c5ccc(Cl)cc5)nn4)cc3n(CC(C)C)c12	0.968	12
CNC(=O)c1cc(Oc2ccc3c(c2)sc2nc(-c4ccc(N(C)C)cc4)cn23)ccn1	0.3	> 50
C=C1C(=O)O[C@H]2[C@H]1CC/C(COC(=O)NCCCCCCCCNC(=O)OC/C1=C/CC[C@@]3(C)O[C@H]3[C@H]3OC(=O)C(=C)[C@@H]3CC1)=C\CC[C@@]1(C)O[C@@H]21	0.191	0.462
CC1(C)N=C(N)N=C(N)N1c1cccc(Br)c1	0.4	> 85.1
Cc1ccc(S(=O)(=O)Nc2ccc(-c3cc(-c4cccc(F)c4)c(C#N)c(N)n3)cc2)cc1	1.72	3.76
C[C@@H](Oc1cc(-n2cnc3ccc(OC[C@@H](O)CO)cc32)sc1C(N)=O)c1ccccc1Cl	0.0159	6.07
COCc1c(-c2ccc(NC(=O)Nc3cc(C(F)(F)F)ccc3F)c(F)c2)c2c(N)ncnn2c1CN1CCOCC1	1.62	5.68
N#CC1C(=O)NC(c2ccccc2[N+](=O)[O-])c2sc3c(F)cccc3c21 (stereo not drawn)	0.108	0.283
Cc1ccc(S(=O)(=O)N2CCc3ccc(O)c4c3C2Cc2ccc3c(c2-4)OCO3)cc1 (stereo not drawn)	0.743	7.49
Nc1c(F)cc(-c2nc3cc(F)ccc3[se]2)cc1Br	0.026	0.0933
